Reference: paper PMC10602545, “Retinal Microenvironment‐Protected Rhein‐GFFYE Nanofibers Attenuate Retinal Ischemia‐Reperfusion Injury via Inhibiting Oxidative Stress and Regulating Microglial/Macrophage M1/M2 Polarization” (Advanced Science, 2023)
Peptide text beside a SMILES is read from it. * marks the point of attachment. X1 = O=C1c2cccc(O)c2C(=O)c2c(O)cc(C(=O)*)cc21

Key:
R28 cells [1] = assay: Safety evaluation under normoxic conditions (ATP and LDH); format: cell-based; settings: 24 h
Method: (§1) The retinal precursor cell line R28 was purchased from Kerafast (Boston, MA, USA) and cultured according to the procedures recommended by the supplier. Briefly, the cells were grown and maintained in DMEM complete medium containing 420 mL DMEM, 15 mL sodium bicarbonate (Sigma‐Aldrich, St. Louis, MO, USA), 50 mL calf serum, 5 mL MEM non‐essential amino acids, 5 mL L‐glutamine (GIBCO, Grand Island, NY, USA), and 0.625 mL Gentamicin (80 mg mL^−1; Solarbio Life Sciences Co., Ltd, Beijing, China) at 37 °C in a humidified atmosphere containing 5% CO2. The stock solutions of Rh‐GFFYE and control compounds were diluted to varying concentrations with DMEM complete medium just before cell treatment.
(§2) An in vitro OGD model was constructed based on the method detailed by Ryou et al.^[ [56] ^] Briefly, R28 cells were cultured in a glucose‐free medium and subjected to hypoxia (1% O2, 5% CO2) for 24 h. The cells were then re‐oxygenated (21% O2, 5% CO2) for 6 h to simulate RIR. The ATP levels were measured using a CellTiter‐Lumi Plus luminescent cell viability assay (Beyotime, Beijing, China). The cell membrane integrity of the R28 cells was evaluated by LDH release assay (Beyotime, Beijing, China).

[2] = In vivo retinal distribution by CLSM (Cy5.5 label); set-up: species or system rat
Source text: To evaluate the distribution of Rh‐GFFYE in RIR‐injured and normal retinas, rats were divided into two groups. At 3, 7, 14, and 21 days after a single intravitreal injection of Cy5.5‐Rh‐GFFYE, the rats were killed and retinas were obtained. Retinal cryosections and retinal whole flat mounts were examined by CLSM to observe the distribution of Rh‐GFFYE in vivo.

[3] = Concentration of rhein in retinas by UPLC-MS/MS; format: in vivo, rat
Method: To further evaluate the concentration of rhein in retinas, the retinas were collected at 7 and 21 days after a single intravitreal injection of Rh‐GFFYE. The retinas were homogenized using a cryogenic homogenizer (ServiceBio, Wuhan, China), and the supernatants were collected after centrifugation for further analysis. The samples were suspended in ethyl acetate and centrifuged for 5 min to obtain the supernatants which were then dried under nitrogen gas flow. The residues were dissolved with mobile phase solution and then quantified using the UPLC‐MS/MS (AB Sciex Triple Quad TM 4500 system, MA, USA) assay.

[4] = In vivo safety evaluation after intravitreal injection; set-up: species or system rat
Source text: For safety evaluation, rats were intravitreally injected Rh‐GFFYE nanofibers. 7 days after injection, ERG was used to detect the retinal function and H&E staining was used to detect the morphology of retina. Orbital blood was taken to detect the contents of ALT and AST in plasma. The major organs (heart, liver, spleen, lung, kidney) were harvested for H&E staining to observe changes in each major organ.

rat model of RIR injury [5] = settings: in vivo
Method: Prior to establishing the model, each anesthetized rat was administered with 0.3% ofloxacin eye drops. Topyramide eye solution was used to dilate the pupil, and proparacaine hydrochloride was used as an eye anesthetic. A 30‐gauge needle containing a balanced salt solution was cannulated into the anterior chamber. […] The sham operation, which served as the control, was performed without elevating the IOP. After 60 min, the needle was withdrawn, the IOP was normal, the posterior segment was pale, and the blood supply was restored, confirming the successful establishment of the RIR injury model. […] During the experiment, each animal's body temperature was kept between 36.5 and 37°C.
At 24 h after establishing the RIR injury model, the rats were randomly divided into five groups: Sham, Saline, Rh‐GFFYE, Ac‐GFFYE, and Nap‐GFFYE. The methods for anesthesia and pupil dilation were the same as described above. Intravitreal injection was accomplished using a Hamilton syringe, and 4 µL of Rh‐GFFYE was injected to obtain a final rhein concentration of 20 µM in the vitreous humor.^[ [58] ^]
Before ERG recording, all the rats were randomly divided into five groups (Sham, Saline, Nap‐GFFYE, Ac‐GFFYE, and Rh‐GFFYE) and adapted in the dark for 12 h. […] For scotopic ERG, the responses to white flashes of 3.00 cd∙s∙m^−2 were recorded. […]

R28 cells [6] = assay: In vitro OGD model, cellular ATP content (CellTiter-Lumi Plus); format: cell-based; settings: 24 h pretreatment, varying concentrations (Rh-GFFYE 10, 20, 40 µM); n = 3
Method: as §1
as §2, with “The cells were then re‐oxygenated (21% O2, 5% CO2) for 6 h to simulate RIR.” left out

R28 cells [7] = assay: Intracellular ROS, H2DCF-DA staining after OGD; format: cell-based; settings: 20 µM, 24 h before OGD, CLSM
Method: R28 cells were seeded at a density of 1 × 10^5 mL^−1 cells in 35‐mm glass‐bottom Petri dishes and incubated overnight. Before OGD injury, the cells were treated with Rh‐GFFYE, rhein, Nap‐GFFYE, or Ac‐GFFYE at a concentration of 20 µM for 24 h. The OGD‐injured cells were then assayed for intracellular ROS production by H2DCF‐DA staining. Briefly, the cells were treated with 10 µM H2DCF‐DA for 30 min in the cell culture incubator. To remove the unincorporated dye, the cells were washed with PBS and the oxidation of H2DCF‐DA was detected by CLSM.

R28 cells [8] = assay: Mitochondrial membrane potential, JC-1 staining after OGD; format: cell-based; settings: 20 µM, 24 h prior to OGD; JC-1, CLSM
Method: A mitochondrial membrane potential assay kit with JC‐1 (Beyotime, Beijing, China) was used to monitor the changes in the mitochondrial membrane potential of R28 cells subjected to OGD following the procedure recommended by the supplier. Briefly, R28 cells were seeded in dishes at a density of 1 × 10^5 mL^−1 cells and cultured overnight. The cells were treated with Rh‐GFFYE, rhein, Nap‐GFFYE, or Ac‐GFFYE at a concentration of 20 µM for 24 h prior to OGD. Following treatment and recovery, the cells were washed three times with PBS and then incubated with 20 µM JC‐1 for 20 min at 37 °C. After removing the JC‐1 staining solution, the cells were washed three times with JC‐1 dyeing buffer, and 2 mL DMEM was added for CLSM imaging.

[9] = system: bone marrow‐derived macrophages (BMDMs); assay: LPS-induced cytokine release, ELISA; format: cell-based, mouse; settings: 20 µM, LPS 100 ng/mL, 24 h
Method: The isolation of mouse BMDMs was performed according to the method of Pineda‐Torra et al.^[ [57] ^] Briefly, the femurs and tibias of C57BL/6 mice were carefully separated and transferred into PBS containing 10% penicillin/streptomycin. The BMDMs were flushed out with a syringe and filtered through a 70‐µm strainer. To further purify the BMDMs, lysis buffer was added to remove the red blood cells. The BMDMs were cultured in a DMEM medium containing macrophage colony‐stimulating factor (MCE, Monmouth Junction, NJ, USA).
BMDMs (1 × 10^5 mL^−1 cells in a volume of 1 mL per well in a 24‐well plate) were pretreated with Rh‐GFFYE, rhein, Nap‐GFFYE, and Ac‐GFFYE at a concentration of 20 µM for 1 h prior to the addition of LPS (100 ng mL^−1) for the specified times (6, 24, and 48 h). The supernatants were collected, and the concentrations of IL‐1β and IL‐6 in the culture medium were measured using ELISA kits (Beyotime, Beijing, China) according to the manufacturer's instructions.

[10] = pH between 8.0 and 9.4; cited from earlier work
Source text: Herb‐derived natural products are regarded as promising drug resources due to their anti‐inflammatory and antioxidant effects.^[ [11] ^] Rhein (4,5‐dihydroxyanthraquinone‐2‐carboxylic acid), is an anthraquinone and one of the pharmacologically active components extracted from Rheum.^[ [12] ^] […] Due to its good anti‐apoptotic and anti‐inflammatory effects, rhein has also been used to treat ischemia/reperfus ...

rat model of RIR injury [11] = assay: Rat RIR injury model, H&E staining of the retina; format: in vivo; settings: intravitreal 4 µL, 20 µM final in vitreous, 24 h after RIR; 7 days; n = 6
Method: (§3) Erythromycin eye ointment was used to prevent bacterial infection.
The changes in retinal morphology caused by RIR injury were visualized by H&E staining. At 7 days after the intravitreal injection of Rh‐GFFYE, the eyeballs were removed and then fixed in 4% paraformaldehyde. The eye tissue was then embedded in paraffin, and 4‐µm‐thick slices were prepared. The H&E staining procedure described previously was followed.^[ [59] ^]

rat model of RIR injury [12] = assay: Rat RIR injury model, immunofluorescence of RGC markers (BRN3A, β‐III‐TUBULIN); format: in vivo; settings: 7 d after intravitreal injection; n = 6
Method: as §3
The RIR‐injured rats were euthanized at 7 days after the intravitreal injection of Rh‐GFFYE. Immediately after removal, the eyeball was fixed in 4% paraformaldehyde for 2 h at 4 °C, dehydrated overnight in 30% sucrose solution, embedded in an optimal cutting temperature compound embedding bottom box (17 × 17 × 5 mm), and stored at −80 °C. Slices with thicknesses of 8 µm were created using a frozen slicer at −22 °C. The slices were placed on adhesive slides and dried at room temperature for >30 min before proceeding to the next step. For immunofluorescent staining, the retinal sections were permeabilized with enhanced immunostaining permeabilization buffer (Beyotime, Beijing, China) for 20 min, blocked with blocking buffer (Beyotime, Beijing, China), and incubated overnight at 4 °C with the following primary antibodies: anti‐β‐III‐TUBULIN, anti‐IBA1, anti‐GFAP, anti‐BRN3A (Abcam, UK), anti‐CD86, and anti‐CD206 (Cell Signaling Technology, Danvers, MA, USA). After rinsing three times with PBS, the sections were incubated with secondary antibodies at room temperature for 2 h, rinsed three times with PBS, and counterstained with DAPI. Sealed with a cover glass, the slides were then observed by CLSM.

[13] = day 7 after single intravitreal injection of Rh-GFFYE, retina homogenate
[14] = 7 days after intravitreal injection, n = 6

| Molecule | toxicity on R28 cells (ATP and LDH levels) (R28 cells [1]) | uptake in ischemic retina compared with control non‐ischemic eyes [2] | concentration of rhein in retina at 21 d relative to day 7 ([3]; 21 d after single intravitreal injection) | concentration of rhein in the ischemic retina [3, 13] [ng/g] | concentration of rhein in the normal retina [3, 13] [ng/g] | morphology of the retina (H&E) ([4]; 7 d after intravitreal injection) | retinal function (ERG) of normal rats ([4]; 7 d after intravitreal injection, vs normal group, n = 6) | serum content of alanine aminotransferase (ALT) [4, 14] | serum content of aspartate aminotransferase (AST) [4, 14] | histological structures of main visceral organs (heart, liver, spleen, lung, kidney) ([4]; H&E, 7 days after intravitreal injection) | amplitudes of the oscillatory potentials (OPs) (rat model of RIR injury [5]) | scotopic ERG a and b wave amplitudes (rat model of RIR injury [5]) | recovery of cell viability (ATP content) under OGD (R28 cells [6]) | intracellular ROS level under OGD (R28 cells [7]) | mitochondrial membrane potential (ΔΨm) under OGD (R28 cells [8]) | anti‐inflammatory effect (release of IL‐1β and IL‐6) [9] | concentration at which rhein self‐assembles into a translucent hydrogel [10] [µM] | IPL thickness after RIR injury (rat model of RIR injury [11]) | number of RGCs (BRN3A positive) compared with Saline group (rat model of RIR injury [12]) |
| --- | --- | --- | --- | --- | --- | --- | --- | --- | --- | --- | --- | --- | --- | --- | --- | --- | --- | --- | --- |
| O=C(O)CC[C@H](NC(=O)[C@H](Cc1ccc(O)cc1)NC(=O)[C@H](Cc1ccccc1)NC(=O)[C@H](Cc1ccccc1)NC(=O)CNC(=O)c1cc(O)c2c(c1)C(=O)c1cccc(O)c1C2=O)C(=O)O [Rh‐GFFYE] (X1-GFFYE-OH) | no toxic effect | increased | approximately one‐quarter of that at day 7 | 27.1 | 15.2 | no significant change | not significantly changed | did not show intergroup differences | did not show intergroup differences | did not induce noticeable histological changes | recovered | significant recovery |  |  |  |  |  |  |  |
| O=C(O)c1cc(O)c2c(c1)C(=O)c1cccc(O)c1C2=O [rhein, 4,5‐dihydroxyanthraquinone‐2‐carboxylic acid] |  |  |  |  |  |  |  |  |  |  |  |  | no restorative effect | significant ROS inhibition | recovered | reduced the release of these two inflammatory cytokines to some extent | 14100 |  |  |
| Nap‐GFFYE [control peptide compound in which rhein is replaced with 1‐naphthylacetic acid (Nap)] |  |  |  |  |  |  |  |  |  |  |  |  | no restorative effect |  | no recovery | did not show anti‐inflammatory effects |  | did not ameliorate | No significant differences |
